We go through 65 compounds from PubChem BioAssay AID1224921 (Broad Institute, 2016).

Active and inactive are the calls of the source. The rule behind the calls is not given here.

The assay concerns Clostridioides difficile clinical isolate growth, OD600, 24 h. The assay can be described thus: C. difficile growth inhibition, confirmation, 4-point retest (AID 1224921).
For orientation: AC50 means the midpoint of the concentration-response curve, whichever way the signal moves. Turning to `O=C(NCC[C@H]1CC[C@@H](NC(=O)C2CC2)[C@H](CO)O1)Nc1ccc(C(F)(F)F)cc1`, the AC50 is 9.05 µM.

On to `C[C@@H]1CN([C@H](C)CO)S(=O)(=O)c2ccc(C#CCC3CCCC3)cc2O[C@@H]1CN(C)C(=O)CN(C)C`, for which the AC50 is 17.6 µM.

As for `C[C@@H]1CN([C@H](C)CO)C(=O)c2cc(NC(=O)Nc3cccc4ccccc34)ccc2O[C@@H](C)CCCCO[C@@H]1CN(C)CC1CCCCC1`, the AC50 was > 60 µM (inactive).

In the case of `CO[C@H]1CN(C)C(=O)c2ccc(NC(=O)Nc3ccc(Cl)c(Cl)c3)cc2OC[C@H](C)NC[C@@H]1C`, the AC50 was 1.2 µM.

For the compound `CN(C)CC(=O)N[C@@H]1CC[C@@H](CCNC(=O)Nc2ccc(C(F)(F)F)cc2)O[C@H]1CO`, the half-maximal activity concentration (AC50) was 4.63 µM.

With `O=C(C[C@H]1CC[C@@H]2[C@H](COC[C@@H](O)CN2C(=O)Nc2ccc(Cl)c(Cl)c2)O1)NCc1ccc(Cl)cc1`, the AC50 was 3.67 µM.

With `C[C@H]1CN([C@@H](C)CO)C(=O)c2cc(C#CCc3ccccc3)cnc2O[C@@H]1CN(C)CC1CCCC1`, the AC50 was 29.7 µM.

Take `CO[C@@H]1CN(C)C(=O)c2cc(NC(=O)C3CCCC3)ccc2OC[C@@H](C)N(C(=O)Nc2ccc(C(F)(F)F)cc2)C[C@H]1C`: the AC50 is 26.6 µM.

Regarding `O=C(C[C@@H]1CC[C@H]2[C@@H](COC[C@H](O)CN2C(=O)Nc2ccc(Cl)c(Cl)c2)O1)NCc1ccc(Cl)c(Cl)c1`, the AC50 is 1.1 µM.

On to `C[C@@H](NC(=O)C[C@H]1CC[C@@H]2[C@H](COC[C@H](O)CN2C(=O)Nc2cc(Cl)cc(Cl)c2)O1)c1ccccc1`, for which the AC50 is 10.9 µM.

Turning to `O=C(C[C@@H]1CC[C@@H]2[C@H](COC[C@@H](O)CN2C(=O)Nc2ccc(C(F)(F)F)cc2)O1)NCCc1ccncc1`, the AC50 was 4.07 µM.

For `O=C(Nc1ccc(-c2ccccc2)cc1)[C@@H]1[C@@H](CO)[C@@H]2Cn3c(cccc3=O)[C@@H]2N1CC1CCCCC1`, the AC50 was > 60 µM (inactive).

In the case of `C[C@@H]1CN([C@H](C)CO)C(=O)c2cc(NC(=O)Nc3ccc(C(F)(F)F)cc3)ccc2O[C@@H](C)CCCCO[C@H]1CN(C)Cc1ccccc1`, the AC50 is 6.56 µM.

For the compound `N#C[C@@H]1[C@H](c2ccc(C#Cc3ccc(F)cc3)cc2)[C@@H](CO)N1C(=O)C1CCC1`, the AC50 was > 60 µM (inactive).

`CO[C@H]1CN(C)C(=O)c2cc(NC(=O)Nc3ccc(Cl)c(Cl)c3)ccc2OC[C@@H](C)NC[C@H]1C`: the AC50 is 9.16 µM.

For `COc1ccccc1CNC(=O)C[C@H]1CC[C@@H]2[C@H](COC[C@H](O)CN2C(=O)Nc2ccc(C(F)(F)F)cc2)O1`, the AC50 is 1.04 µM.

`C[C@@H]1CN([C@H](C)CO)C(=O)c2cccc(NC(=O)Nc3ccc(C(F)(F)F)cc3)c2O[C@@H]1CN(C)Cc1ccc(Oc2ccccc2)cc1`: the AC50 is 18.8 µM.

With `O=C(C[C@H]1CC[C@H]2[C@@H](COC[C@H](O)CN2C(=O)Nc2ccc(Cl)c(Cl)c2)O1)NCc1ccc(F)cc1`, the AC50 was 2.08 µM.

Consider `C[C@H](CO)N1C[C@H](C)[C@H](CN(C)CC2CCCCC2)OCCCC[C@H](C)Oc2ccc(NC(=O)Nc3ccc(C(F)(F)F)cc3)cc2C1=O`, for which the AC50 was 10.9 µM.

Turning to `O=C(NCC[C@@H]1CC[C@H](NC(=O)C2CC2)[C@H](CO)O1)Nc1ccc(C(F)(F)F)cc1`, the AC50 was 4.32 µM.

Regarding `C[C@H]1CCCCO[C@H](CN(C)Cc2ccccc2)[C@@H](C)CN([C@@H](C)CO)C(=O)c2cc(NC(=O)Nc3ccc(C(F)(F)F)cc3)ccc2O1`, the AC50 was 18.2 µM.

For `CCCNC(=O)C[C@H]1CC[C@@H]2[C@H](COC[C@@H](O)CN2C(=O)Nc2ccc(Cl)c(Cl)c2)O1`, the concentration at half-maximal activity (AC50) is 2.91 µM.

Take `C[C@@H]1CN([C@H](C)CO)S(=O)(=O)c2ccc(C#Cc3ccccc3)cc2O[C@H]1CN(C)C`: the AC50 is 28.4 µM.

Regarding `C[C@@H]1CCCCO[C@H](CN(C)C(=O)Nc2ccc(C(F)(F)F)cc2)[C@H](C)CN([C@@H](C)CO)C(=O)c2cc(N(C)C)ccc2O1`, the AC50 is > 60 µM (inactive).

Consider `O=C(C[C@@H]1CC[C@@H]2[C@H](COC[C@H](O)CN2C(=O)Nc2ccc(C(F)(F)F)cc2)O1)NC1Cc2ccccc2C1`, for which the AC50 was 19 µM.

Turning to `C[C@@H]1CN([C@@H](C)CO)C(=O)c2cccc(NC(=O)Nc3ccc(C(F)(F)F)cc3)c2O[C@@H]1CN(C)Cc1ccccc1`, the AC50 was 3.65 µM.

On to `CO[C@H]1CN(C)C(=O)c2ccc(NC(=O)c3nc4ccccc4s3)cc2OC[C@@H](C)N(Cc2ccncc2)C[C@@H]1C`, for which the half-maximal activity concentration (AC50) was 30.8 µM.

On to `O=C(Nc1ccc(-c2ccccc2)cc1)[C@H]1[C@H](CO)[C@H]2Cn3c(cccc3=O)[C@H]2N1CC1CCCCC1`, for which the AC50 was > 60 µM (inactive).

In the case of `CO[C@H](CN(C)C(=O)C1CC1)[C@@H](C)CN(C(=O)Nc1ccc(C(F)(F)F)cc1)[C@H](C)CO`, the AC50 was 3.59 µM.

Take `CCC(=O)N[C@@H]1CC[C@@H](CCNC(=O)Nc2ccc(C(F)(F)F)cc2)O[C@@H]1CO`: the concentration at half-maximal activity (AC50) is 3.9 µM.

As for `Cc1noc(C)c1NC(=O)Nc1cccc2c1O[C@H](CN(C)Cc1ccc(Oc3ccccc3)cc1)[C@H](C)CN([C@@H](C)CO)C2=O`, the concentration at half-maximal activity (AC50) was 9.38 µM.

In the case of `CO[C@@H]1CN(C)C(=O)c2cc(NC(=O)Nc3ccc(Cl)c(Cl)c3)ccc2OC[C@H](C)NC[C@@H]1C`, the AC50 is 8.13 µM.

Turning to `O=C(C[C@H]1CC[C@H]2[C@@H](COC[C@H](O)CN2C(=O)Nc2ccc(C(F)(F)F)cc2)O1)NC1Cc2ccccc2C1`, the AC50 was 1.54 µM.

In the case of `COCC(=O)N1C[C@H](C)[C@H](OC)CN(C)C(=O)c2ccc(NC(=O)NC(C)C)cc2OC[C@H]1C`, the AC50 is > 60 µM (inactive).

With `O=C(C[C@@H]1CC[C@H]2[C@@H](COC[C@@H](O)CN2C(=O)Nc2ccc(Cl)c(Cl)c2)O1)NCc1ccc(F)cc1`, the AC50 is 1.92 µM.

For the compound `O=C(C[C@H]1CC[C@H]2[C@@H](COC[C@H](O)CN2C(=O)Nc2ccc(Cl)c(Cl)c2)O1)NCc1ccncc1`, the concentration at half-maximal activity (AC50) was 0.575 µM.

With `C[C@@H]1CCCCO[C@@H](CN(C)CC2CC2)[C@@H](C)CN([C@H](C)CO)C(=O)c2cc(NC(=O)Nc3ccc(C(F)(F)F)cc3)ccc2O1`, the concentration at half-maximal activity (AC50) was 35.5 µM.

Take `C[C@@H]1CN([C@@H](C)CO)C(=O)c2cc(NC(=O)Nc3cccc4ccccc34)ccc2O[C@@H](C)CCCCO[C@H]1CN(C)CC1CCCCC1`: the half-maximal activity concentration (AC50) was 32.1 µM.

For the compound `O=C(C[C@@H]1CC[C@H]2[C@@H](COC[C@H](O)CN2C(=O)Nc2ccc(Cl)c(Cl)c2)O1)NCc1ccncc1`, the AC50 is 3.77 µM.

`C[C@@H]1CCCCO[C@@H](CN(C)CC2CCCCC2)[C@H](C)CN([C@@H](C)CO)C(=O)c2cc(NC(=O)Nc3ccc(C(F)(F)F)cc3)ccc2O1`: the AC50 is 12.6 µM.

As for `C[C@@H]1CN([C@@H](C)CO)C(=O)c2cccc(NC(=O)Nc3ccc(F)cc3)c2O[C@@H]1CN(C)Cc1ccc(C(F)(F)F)cc1`, the AC50 was 2.37 µM.

As for `COc1ccccc1CNC(=O)C[C@@H]1CC[C@@H]2[C@H](COC[C@H](O)CN2C(=O)Nc2ccc(C(F)(F)F)cc2)O1`, the AC50 was 0.614 µM.

`C[C@@H]1CN([C@@H](C)CO)C(=O)c2cc(NC(=O)C3CC3)ccc2O[C@@H]1CN(C)C(=O)Nc1ccc(C(F)(F)F)cc1`: the concentration at half-maximal activity (AC50) is 8.92 µM.

For `CO[C@H](CN(C)C(=O)C1CC1)[C@H](C)CN(C(=O)Nc1ccc(C(F)(F)F)cc1)[C@H](C)CO`, the AC50 was 2.98 µM.

`O=C(C[C@@H]1CC[C@H]2[C@@H](COC[C@@H](O)CN2S(=O)(=O)c2ccc(Cl)cc2)O1)NCC1CCCCC1`: the AC50 is 15.8 µM.

`CNC[C@H]1OCCCC[C@@H](C)Oc2ccc(NC(=O)Nc3ccc(C(F)(F)F)cc3)cc2C(=O)N([C@H](C)CO)C[C@H]1C`: the concentration at half-maximal activity (AC50) was 15.4 µM.

As for `CO[C@H](CN(C)S(=O)(=O)c1cn(C)cn1)[C@H](C)CN(C(=O)Nc1ccc(C(F)(F)F)cc1)[C@H](C)CO`, the concentration at half-maximal activity (AC50) was 6.25 µM.

Consider `N#C[C@H]1[C@H](c2ccc(C#Cc3ccc(F)cc3)cc2)[C@@H](CO)N1C(=O)C1CCCC1`, for which the AC50 is > 70 µM (inactive).

For `C=C1CC(c2ccc(-c3ccccc3)cc2)OC1=O` (stereo not given), the half-maximal activity concentration (AC50) was 13.7 µM.

Take `O=C(C[C@H]1CC[C@H]2[C@@H](COC[C@@H](O)CN2C(=O)Nc2ccc(C(F)(F)F)cc2)O1)NCCc1ccncc1`: the AC50 is 3.88 µM.

In the case of `C[C@@H]1CCCCO[C@@H](CN(C)CC2CC2)[C@H](C)CN([C@@H](C)CO)C(=O)c2cc(NC(=O)Nc3ccc(C(F)(F)F)cc3)ccc2O1`, the AC50 was 17.6 µM.

As to `CC(C)CC#Cc1ccc2c(c1)O[C@H](CN(C)Cc1ccc(C(=O)O)cc1)[C@@H](C)CN([C@H](C)CO)S2(=O)=O`, the AC50 is 17.9 µM.

`CCNC(=O)C[C@@H]1CC[C@@H]2[C@H](COC[C@@H](O)CN2C(=O)Nc2ccc(Cl)c(Cl)c2)O1`: the AC50 was 16.5 µM.

For the compound `O=C(C[C@@H]1CC[C@H]2[C@@H](COC[C@@H](O)CN2C(=O)Nc2ccc(C(F)(F)F)cc2)O1)NCC1CCCCC1`, the AC50 is 3.56 µM.

In the case of `O=C(C[C@H]1CC[C@H]2[C@@H](COC[C@H](O)CN2C(=O)Nc2ccc(Cl)c(Cl)c2)O1)NCc1ccccc1`, the AC50 was 1.11 µM.

As for `O=C(C[C@H]1CC[C@@H]2[C@H](COC[C@H](O)CN2C(=O)Nc2ccc(Cl)c(Cl)c2)O1)NC1CCC1`, the AC50 was 4.46 µM.

With `C[C@H]1CN([C@@H](C)CO)C(=O)c2ccccc2-c2ccccc2CO[C@H]1CN(C)Cc1ccc(F)cc1`, the AC50 is > 16 µM (inactive).

For `CO[C@H]1CN(C)C(=O)c2cc(NC(=O)Nc3cc(Cl)cc(Cl)c3)ccc2OC[C@@H](C)NC[C@H]1C`, the concentration at half-maximal activity (AC50) is 9.49 µM.

In the case of `C[C@@H]1CN([C@H](C)CO)C(=O)Cc2cc(NS(=O)(=O)c3ccc(Cl)cc3)ccc2O[C@H]1CN(C)CC1CCCCC1`, the AC50 is 18 µM.

Turning to `N#C[C@H]1[C@H](c2ccc(C#Cc3cccc(F)c3)cc2)[C@@H](CO)N1C(=O)C1CCC1`, the AC50 is > 16 µM (inactive).

Turning to `O=C(C[C@@H]1CC[C@@H]2[C@H](COC[C@@H](O)CN2C(=O)Nc2ccc(Cl)c(Cl)c2)O1)NC1CCC1`, the AC50 was 2.82 µM.

As for `C[C@H](CO)N1C[C@H](C)[C@H](CN(C)C(=O)Nc2ccccc2)Oc2c(NC(=O)Nc3ccc(C(F)(F)F)cc3)cccc2C1=O`, the AC50 is 26.5 µM.

Take `CNC(=O)C[C@H]1CC[C@@H]2[C@H](COC[C@H](O)CN2C(=O)Nc2ccc(Cl)c(Cl)c2)O1`: the AC50 was 4.12 µM.

With `COc1ccccc1C#Cc1ccc([C@H]2[C@@H](C#N)N(C(=O)C3CCCCC3)[C@H]2CO)cc1`, the AC50 was 30 µM.

Regarding `O=C(C[C@H]1CC[C@@H]2[C@H](COC[C@H](O)CN2C(=O)Nc2ccc(C(F)(F)F)cc2)O1)NCC1CCCCC1`, the AC50 was 1.21 µM.
